Where no end group is shown, it is not given here. 5‑FAM = 5-carboxyfluorescein-aminohexyl amidite fluorescent tag
Experiments:
[1] = ELISA determination of specificity, binding to pig skin; settings: for Skin A450 ± SEM: ELISA, 20 μM fluorescein-labeled peptide in binding buffer, 30 min at 37° C., pig skin, absorbance at 450 nm; for binding to skin (in words): ELISA of Table 2, pig skin
Description: (§1) The hair-binding peptides HCP.1 (SEQ ID NO:1) and HCP.6 (SEQ ID NO:4) were used in this Example along with a control peptide, an unrelated skin-binding peptide, Skin 1 (Huang et al., U.S. Patent Application Publication No. 2005/0050656), given as SEQ ID NO:8. All of the peptides were synthesized with an added lysine residue, derivatized with the fluorescent tag 5-carboxyfluorescein-aminohexyl amidite (5-FAM), at the C-terminus by SynPep (Dublin, Calif.). The sequences of the derivatized hair binding peptides HCP.1(5-FAM) and HCP.6(5-FAM) are given as SEQ ID NOs:9 and 10, respectively. The sequence of the derivatized skin-binding peptide control Skin 1(5-FAM) is given as SEQ ID NO:11.
(§2) For the assay, a unique hair or pig skin-bottom 96-well apparatus was created by applying one layer of Parafilm® under the top 96-well block of a Minifold I Dot-Blot System (Schleicher & Schuell, Inc., Keene, N.H.), adding hair or a layer of hairless pig skin on top of the Parafilm® cover, and then tightening the apparatus. The hair or skin sample in the 96-well apparatus was first blocked with SuperBlock® Blocking Buffer (Tris-buffered; Pierce Biotechnology, Rockford, Ill.) by incubating the sample for 1 h at room temperature. Then, the hair or skin sample was washed six times with wash buffer (TBST-0.5%). The fluorescein-labeled peptide, at a concentration of 20 μM in 1.0 mL of binding buffer (TBST-0.5% containing 1 mg/mL BSA), was added to each well and incubated for 30 min at 37° C. The hair or skin sample was washed six times with TBST-0.5%, and then, 1.0 mL of anti-fluorescein/Mouse IgG (Molecular Probes, Inc., Eugene, Oreg.) solution (1:1000 dilution in blocking buffer) was added per well. The samples were incubated for 1 h at room temperature and then washed six times with wash buffer. Then, 1.0 mL of Anti-Mouse IgG-HRP conjugate (Pierce Biotechnology) solution (1:1000 dilution in blocking buffer) was added to each well and the samples were incubated for 1 h at room temperature. The samples were washed six times with wash buffer, and 300 μL of TMB Substrate (Pierce Biotechnology) was added to each well. The samples were incubated for 10 min at room temperature and then a 100 μL sample from each well was taken and added to a well in a new microtiter plate. Then, 100 μL of Stop solution (2 M sulfuric acid solution) was added to each well and the absorbance of each sample was measured at a wavelength of 450 nm.

[2] = ELISA binding to hair bundles from a hair conditioner matrix or buffer; set-up: species or system human; settings: for Buffer A450 ± SEM / 100% Conditioner A450 ± SEM: hair bundles, 30 min at 37° C.; for Buffer A450 ± SEM: 20 μM peptide in buffer; for 100% Conditioner A450 ± SEM: 20 μM peptide in undiluted Dove Extra Volume Conditioner; for difference in hair-binding activity from a hair conditioner matrix compared to buffer: ELISA of Table 3
Procedure: The same ELISA method described in Example 4 was used, except that the hair samples were assembled into bundles, instead of being cast as wells in a 96-well apparatus. To prepare the hair sample bundles, 100 pieces of 1 cm-long hairs were assembled together and taped at one end with narrow tape (3 M, St. Paul, Minn.). The hair was prepared as described in Examples 1-3 and placed into a flat-bottom block (Qiagen Science, Germantown, Md.; Cat. No. 19579).
The HCP.1(5-FAM) and HCP.6(5-FAM) hair-binding peptides, as described in Example 4, were mixed separately with undiluted hair conditioner (Dove® Extra Volume Conditioner; Unilever) using a high-shear mixer (Silverson, Model L4R7A; Silverson Machines, East Longmeadow, Mass.) for 6 min to give a final peptide concentration of 20 μM. The hair samples were blocked as described in Example 4 and then incubated in the peptide-conditioner mixtures for 30 min at 37° C. The hair samples were then washed and treated as described in Example 4. After the final wash step after the addition of the Anti-Mouse IgG-HRP conjugate, the hair bundles were transferred to new tubes and the TMB substrate was added. The hair bundles were incubated for 10 min at room temperature, and then a 100 μL sample from each tube was taken and added to a well in a microtiter plate. Then, 100 μL of Stop solution (2 M sulfuric acid solution) was added to each well and the absorbance of each sample was measured at a wavelength of 450 nm.
The binding of the HCP.1(5-FAM) and HCP.6(5-FAM) hair-binding peptides to hair from buffer was determined using the same procedure. In addition, controls were run using the same procedure, without any hair-binding peptide present, in both hair conditioner and buffer.

[3] = ELISA determination of specificity, binding to hair; set-up: species or system human; settings: for Hair A450 ± SEM: ELISA, 20 μM fluorescein-labeled peptide in binding buffer, 30 min at 37° C., absorbance at 450 nm; for binding to hair (in words): ELISA of Table 2
Description: as §1, §2

[4] = Shampoo resistance of hair binding (ELISA after 30% shampoo wash); set-up: species or system human; settings: wash with 30% shampoo (Pantene Pro-V, Sheer Volume)
Procedure: Experiments were also done to determine if the hair conditioner-resistant hair-binding peptides were also shampoo resistant. For these experiments, the hair, after contacting with the hair-binding peptide (HCP.1 or HCP.6), was washed with a solution containing 30% shampoo (Pantene Pro-V, Sheer Volume, Proctor & Gamble, Cincinnati, Ohio) and the binding activity was determined using the ELISA method described above and compared to that obtained with buffer washes.

[5] = Stability of hair-binding activity in a hair conditioner matrix (ELISA over time); set-up: species or system human; settings: 21 days in hair conditioner matrix, room temperature; FIGS. 1 and 2
Procedure: Separate mixtures of the hair-binding peptides HCP.1 and HCP.6 in hair conditioner were prepared as described in Example 5. For purposes of comparison, solutions of the hair-binding peptides in buffer were used. All the solutions were stored at room temperature and the binding activity of the peptides was determined using the ELISA procedure described in Example 5 using samples taken at different periods of time.

Substance | Skin A450 ± SEM [1] | Buffer A450 ± SEM [2] | 100% Conditioner A450 ± SEM [2] | Hair A450 ± SEM [3] | binding to skin (in words) [1] | binding to hair (in words) [3] | binding activity after shampoo wash compared to buffer washes [4] | difference in hair-binding activity from a hair conditioner matrix compared to buffer [2] | hair-binding activity after storage in the hair conditioner matrix [5]
Skin 1(5-FAM): skin-binding control peptide Skin 1 with added C-terminal lysine derivatized with 5-FAM (TPFHSPENAPGSK(5‑FAM)) [reference compound] | 0.328 ± 0.146 | – | – | −0.001 ± 0.041 | – | – | – | – | –
HCP.1(5-FAM): HCP.1 with an added C-terminal lysine derivatized with fluorescent tag 5-carboxyfluorescein-aminohexyl amidite (THSTHNHGSPRHTNADAGNPK(5‑FAM)) | 0.090 ± 0.136 | 1.593 ± 0.060 | 1.581 ± 0.046 | 0.392 ± 0.065 | – | – | – | – | –
THSTHNHGSPRHTNADAGNP (Hair conditioner-resistant hair-binding peptide) [HCP.1] | – | – | – | – | not to skin | bind to hair | almost total loss of binding activity | no significant difference | no significant decrease

The next lines start with results.

Skin A450 ± SEM [1] | Buffer A450 ± SEM [2] | 100% Conditioner A450 ± SEM [2] | Hair A450 ± SEM [3] | binding to skin (in words) [1] | binding to hair (in words) [3] | binding activity after shampoo wash compared to buffer washes [4] | difference in hair-binding activity from a hair conditioner matrix compared to buffer [2] | Substance | hair-binding activity after storage in the hair conditioner matrix [5]
−0.009 ± 0.023 | 1.420 ± 0.062 | 1.217 ± 0.075 | 0.581 ± 0.053 | – | – | – | – | HCP.6(5-FAM): HCP.6 with an added C-terminal lysine derivatized with fluorescent tag 5-carboxyfluorescein-aminohexyl amidite (STLHKYKSQDPTPHHK(5‑FAM)) | –
– | – | – | – | high skin-binding activity | low hair-binding activity | – | – | Skin 1: control peptide, an unrelated skin-binding peptide (Huang et al., US 2005/0050656) (TPFHSPENAPGS; Skin-binding peptide) [reference compound] | –
– | – | – | – | not to skin | bind to hair | almost total loss of binding activity | no significant difference | STLHKYKSQDPTPHH (Hair conditioner-resistant hair-binding peptide) [HCP.6] | no significant decrease
